From patent US4141986A, “Antibiotics 890A2 and 890A5” (Merck & Co., Inc., priority 1977, dated 1979)

Experiments:
Assay type in all cases: cell-based
[1] = test system: Corynebacterium pseudodiph. ATCC 9742; test: In vitro antibacterial spectrum profile, agar diffusion; settings: read-out: Inhib. Zone Diam.
[2] = test system: Staphylococcus aureus (res. methicillin) MB-2949; test: as above; settings: read-out: Inhib. Zone Diam.
[3] = test system: Streptoccocus faecium MB-2820; test: as above; settings: read-out: Inhib. Zone Diam.
[4] = test system: Staphylococcus aureus MB-698; test: as above; settings: read-out: Inhib. Zone Diam.
[5] = test system: Proteus vulgaris (episome) MB-2112; test: as above; settings: read-out: Inhib. Zone Diam.
Experimental: (§1) The test to determine the antibiotic spectrum profile of antibiotic 890A2 is carried out by saturating 1/4 inch diameter paper discs in a solution of antibiotic 890A2 in 5% methanol at a concentration of 5 μg./ml.; air drying the saturated paper discs and placing them on the surface of 100 × 15 mm. petri plates containing 5 ml. of seeded nutrient agar plus 0.2% yeast extract.
(§2) The test to determine the antibiotic spectrum profile of antibiotic 890A5 is carried out by application of a 0.015 ml. droplet of a 33 μg./ml. aqueous solution of the antibiotic on the surface of a 100 × 15 mm. petri plate containing 5 ml. of seeded nutrient agar plus 0.2% yeast extract.
^a this episome confers resistance to tetracycline, chloramphenicol,
kanamycin and streptomycin at a concentration of 20 μg./ml. and
neomycin at a concentration of 25 μg./ml. and sulfa drugs.

[6] = test system: Vibrio percolans +2 × 10^5 units/ml. penicillinase MB-1272; test: In vitro antibacterial spectrum profile, agar diffusion, with penicillinase; settings: Comamonas terrigena, read-out: Inhib. Zone Diam.
[7] = test system: Pseudomonas stutzeri ATCC 11607; test: In vitro antibacterial spectrum profile, agar diffusion; settings: Stutzerimonas stutzeri, ATCC11607, read-out: Inhib. Zone Diam.
Proteus vulgaris MB-1012 = test: as above; settings: read-out: Inhib. Zone Diam.
[8] = test system: Bacillus subtilis ATCC 6633; test: as above
[9] = test system: Erwinia atroseptica ATCC 4466; test: as above; settings: Pectobacterium atrosepticum, ATCC4466, read-out: Inhib. Zone Diam.
[10] = test system: Vibrio percolans ATCC 8461; test: as above; settings: Comamonas terrigena, ATCC8461, read-out: Inhib. Zone Diam.
Escherichia coli MB-1418 = test: as above; settings: read-out: Inhib. Zone Diam.
[11] = test system: Pseudomonas aeruginosa MB-2824; test: as above; settings: read-out: Inhib. Zone Diam.
[12] = test system: Escherichia coli ATCC 9637; test: as above; settings: read-out: Inhib. Zone Diam.
[13] = test system: Vibrio percolans + Aerobacter Lactamase MB-1272; test: In vitro antibacterial spectrum profile, agar diffusion, with Aerobacter lactamase; settings: Comamonas terrigena, read-out: Inhib. Zone Diam.
[14] = test system: Proteus mirabilis MB-3126; test: In vitro antibacterial spectrum profile, agar diffusion; settings: read-out: Inhib. Zone Diam.
[15] = test system: Brucella bronchiseptica ATCC 4617; test: microbe, parasite or virus in culture; settings: Bordetella bronchiseptica, ATCC4617, read-out: Inhib. Zone Diam.
[16] = test system: Vibrio percolans resistant to ceph. C) MB-2566; test: In vitro antibacterial spectrum profile, agar diffusion; settings: Comamonas terrigena, read-out: Inhib. Zone Diam.
[17] = test system: Salmonella gallinarum MB-1287; test: as above; settings: Salmonella enterica, read-out: Inhib. Zone Diam.
[18] = test system: Klebsiella pneumoniae MB-1264; test: as above; settings: read-out: Inhib. Zone Diam.
[19] = test system: Serratia marcesens ATCC 990; test: as above; settings: read-out: Inhib. Zone Diam.
[20] = test system: Xanthomonas vesicatoria MB-815; test: as above; settings: read-out: Inhib. Zone Diam.
Sarcina lutea ATCC 9341 = test: as above; settings: Micrococcus luteus, ATCC9341, read-out: Inhib. Zone Diam.
[21] = test system: Aerobacter aerogenes MB-835; test: as above; settings: Klebsiella aerogenes, MB835, read-out: Inhib. Zone Diam.
[22] = test system: Pseudomonas aeruginosa MB-979; test: as above; settings: read-out: Inhib. Zone Diam.
Bacillus sp. MB-633 = test: as above; settings: read-out: Inhib. Zone Diam.
Experimental: as §1, §2

[23] = test system: Staphylococcus aureus ATCC 6538 P; test: as above
[24] = 890A2 5 μg./ml., 1/4 inch paper disc
[25] = 890A5 33 μg./ml., 0.015 ml. droplet

Question: For `CC(=O)NC=CSC1=C(C(=O)O)N2C(=O)C(C(C)O)C2C1` (stereo not drawn) [Antibiotic 890A2], which zone of inhibition at 5 µg/mL ([1]; ATCC9742, 890A2 5 μg./ml., 1/4 inch paper disc) is on record?
Answer: 35 mm

Question: What about the zone of inhibition at 5 µg/mL [2, 24] of the same compound?
Answer: 11 mm

Question: And the zone of inhibition at 5 µg/mL [3, 24]?
Answer: 22 mm

Question: What about the zone of inhibition at 5 µg/mL ([4]; MB698, 890A2 5 μg./ml., 1/4 inch paper disc) of the same compound?
Answer: 30 mm

Question: What about the zone of inhibition at 5 µg/mL [5, 24] of the same compound?
Answer: 33 mm

Question: What about the zone of inhibition at 5 µg/mL [6, 24] of the same compound?
Answer: 7 mm

Question: And the zone of inhibition at 5 µg/mL [7, 24]?
Answer: 19 mm

Question: What about the zone of inhibition at 5 µg/mL (Proteus vulgaris MB-1012; MB1012, 890A2 5 μg./ml., 1/4 inch paper disc) of the same compound?
Answer: 11 mm

Question: And the zone of inhibition at 5 µg/mL ([8]; ATCC6633, 890A2 5 μg./ml., 1/4 inch paper disc, read-out: Inhib. Zone Diam.)?
Answer: 42 mm

Question: What about the zone of inhibition at 5 µg/mL [9, 24] of the same compound?
Answer: 26 mm

Question: What about the zone of inhibition at 5 µg/mL [10, 24] of the same compound?
Answer: 31 mm

Question: What about the zone of inhibition at 5 µg/mL (Escherichia coli MB-1418; MB1418, 890A2 5 μg./ml., 1/4 inch paper disc) of the same compound?
Answer: 32 mm

Question: What about the zone of inhibition at 5 µg/mL ([11]; MB2824, 890A2 5 μg./ml., 1/4 inch paper disc) of the same compound?
Answer: 13 mm

Question: What about the zone of inhibition at 5 µg/mL ([12]; ATCC9637, 890A2 5 μg./ml., 1/4 inch paper disc) of the same compound?
Answer: 29 mm

Question: And the zone of inhibition at 5 µg/mL [13]?
Answer: 31 mm

Question: And the zone of inhibition at 5 µg/mL ([14]; MB3126, 890A2 5 μg./ml., 1/4 inch paper disc)?
Answer: 22 mm

Question: And the zone of inhibition at 5 µg/mL [15]?
Answer: 29 mm

Question: And the zone of inhibition at 5 µg/mL [16]?
Answer: 11 mm

Question: What about the zone of inhibition at 5 µg/mL [17, 24] of the same compound?
Answer: 33 mm

Question: What about the zone of inhibition at 5 µg/mL ([18]; MB1264, 890A2 5 μg./ml., 1/4 inch paper disc) of the same compound?
Answer: 31 mm

Question: And the zone of inhibition at 5 µg/mL ([19]; ATCC990, 890A2 5 μg./ml., 1/4 inch paper disc)?
Answer: 23 mm

Question: What about the zone of inhibition at 5 µg/mL ([20]; MB815, 890A2 5 μg./ml., 1/4 inch paper disc) of the same compound?
Answer: 29 mm

Question: And the zone of inhibition at 5 µg/mL (Sarcina lutea ATCC 9341; [24])?
Answer: 42 mm

Question: What about the zone of inhibition at 5 µg/mL [21, 24] of the same compound?
Answer: 27 mm

Question: And the zone of inhibition at 5 µg/mL ([22]; MB979, 890A2 5 μg./ml., 1/4 inch paper disc)?
Answer: 0 mm

Question: What about the zone of inhibition at 5 µg/mL (Bacillus sp. MB-633; SP.MB633, 890A2 5 μg./ml., 1/4 inch paper disc) of the same compound?
Answer: 40 mm

Question: And the zone of inhibition at 5 µg/mL ([23]; ATCC6538, read-out: Inhib. Zone Diam.)?
Answer: 34 mm

Question: What does the source list for `CC(=O)NC=CSC1=C(C(=O)O)N2C(=O)C(C(C)O)C2C1` (stereo not drawn) [Antibiotic 890A5]?
Answer: zone of inhibition at 33 µg/mL ([1]; ATCC9742, 890A5 33 μg./ml., 0.015 ml. droplet): 33 mm; zone of inhibition at 33 µg/mL [2]: 15 mm; zone of inhibition at 33 µg/mL [3, 25]: 0 mm; zone of inhibition at 33 µg/mL ([4]; MB698, 890A5 33 μg./ml., 0.015 ml. droplet): 35 mm; zone of inhibition at 33 µg/mL [5, 25]: 23 mm; zone of inhibition at 33 µg/mL [6, 25]: 40 mm; zone of inhibition at 33 µg/mL [7, 25]: 14 mm; zone of inhibition at 33 µg/mL (Proteus vulgaris MB-1012; MB1012, 890A5 33 μg./ml., 0.015 ml. droplet): 23 mm; zone of inhibition at 33 µg/mL ([8]; ATCC6633, read-out: Inhib. Zone Diam.): 27 mm; zone of inhibition at 33 µg/mL [9, 25]: 21 mm; zone of inhibition at 33 µg/mL [10, 25]: 32 mm; zone of inhibition at 33 µg/mL (Escherichia coli MB-1418; MB1418, 890A5 33 μg./ml., 0.015 ml. droplet): 27 mm; zone of inhibition at 33 µg/mL ([11]; MB2824, 890A5 33 μg./ml., 0.015 ml. droplet): 0 mm; zone of inhibition at 33 µg/mL ([12]; ATCC9637, 890A5 33 μg./ml., 0.015 ml. droplet): 24 mm; zone of inhibition at 33 µg/mL [13]: 36 mm; zone of inhibition at 33 µg/mL ([14]; MB3126, 890A5 33 μg./ml., 0.015 ml. droplet): 20 mm; zone of inhibition at 33 µg/mL [15]: 22 mm; zone of inhibition at 33 µg/mL [16]: 35 mm; zone of inhibition at 33 µg/mL [17, 25]: 26 mm; zone of inhibition at 33 µg/mL ([18]; MB1264, 890A5 33 μg./ml., 0.015 ml. droplet): 27 mm; zone of inhibition at 33 µg/mL ([19]; ATCC990, 890A5 33 μg./ml., 0.015 ml. droplet): 29 mm; zone of inhibition at 33 µg/mL ([20]; MB815, 890A5 33 μg./ml., 0.015 ml. droplet): 20 mm; zone of inhibition at 33 µg/mL (Sarcina lutea ATCC 9341; [25]): 40 mm; zone of inhibition at 33 µg/mL [21, 25]: 24 mm; zone of inhibition at 33 µg/mL ([22]; MB979, 890A5 33 μg./ml., 0.015 ml. droplet): 0 mm; zone of inhibition at 33 µg/mL (Bacillus sp. MB-633; SP.MB633, 890A5 33 μg./ml., 0.015 ml. droplet): 18 mm; zone of inhibition at 33 µg/mL ([23]; ATCC6538, 890A5 33 μg./ml., 0.015 ml. droplet, read-out: Inhib. Zone Diam.): 34 mm
